# Test results: article PMC11514582, “Leveraging the Aggregated Protein Dye YAT2150 for Malaria Chemotherapy” (Pharmaceutics, 2024)
# Read-outs that look alike come from different tables or passages of the source.
# Columns and labels:
# CYP2C9 = CYP2C9 (Homo sapiens, UniProt P11712); assay: in vitro
# CYP1A2 = molecular target: T1, CYP1A2 (Homo sapiens, UniProt P05177); assay: in vitro
# T1 sequence (P05177 1-516): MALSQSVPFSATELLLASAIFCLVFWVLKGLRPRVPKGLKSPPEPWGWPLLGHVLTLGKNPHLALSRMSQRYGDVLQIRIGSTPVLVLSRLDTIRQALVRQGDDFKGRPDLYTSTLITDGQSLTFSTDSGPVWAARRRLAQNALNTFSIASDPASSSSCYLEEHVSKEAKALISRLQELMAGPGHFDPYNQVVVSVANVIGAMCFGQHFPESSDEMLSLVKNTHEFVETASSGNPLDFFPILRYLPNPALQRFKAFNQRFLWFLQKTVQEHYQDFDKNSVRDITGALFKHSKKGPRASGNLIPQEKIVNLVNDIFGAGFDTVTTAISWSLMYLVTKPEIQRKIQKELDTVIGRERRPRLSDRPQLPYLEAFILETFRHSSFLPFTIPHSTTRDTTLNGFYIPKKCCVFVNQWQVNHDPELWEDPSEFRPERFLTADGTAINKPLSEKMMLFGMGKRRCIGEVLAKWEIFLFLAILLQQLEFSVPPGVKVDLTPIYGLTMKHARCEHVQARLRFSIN
# [1] = test system: protein aggregation in P. falciparum cultures; assay: ThT protein aggregation assay in P. falciparum cultures; assay type: cell-based, Plasmodium falciparum; details: treated for 4 h at the IC50
# Procedure: After this incubation, 9 mL of culture was removed and subjected to a second Percoll treatment to pellet the parasitized red blood cells, which were resuspended in 50 μL of lysis buffer, consisting of 4.5 mg/mL NaCl in H2O supplemented with 1× cOmplete^TM protease inhibitor cocktail (Roche, Basel, Switzerland), and treated as described elsewhere [13]. […] Only those samples with parasitemias between 30 and 70% relative to the control were considered for ThT analysis.
# [2] = test system: P. falciparum asexual blood stages; assay: microbe, parasite or virus in culture; details: Plasmodium falciparum
# Procedure: The asexual blood stages of P. falciparum parasites of the 3D7 strain (Malaria Research and Reference Reagent Resource Center, Manassas, VA, USA) were cultured in group B human RBCs at 3% hematocrit, which was kept throughout the experiments, and incubated in RPMIc. Parasites were maintained at 37 °C under an atmosphere of 5% O2, 5% CO2, and 90% N2. […] The parasites were then cultured under standard conditions for 48 h, allowing for a complete replication cycle. After the incubation period, 3 µL of culture from each well was mixed with 197 µL of PBS containing 0.1 µM Syto 11 (Thermo Fisher Scientific, Inc.) to obtain a final concentration of 1 × 10^6 to 10 × 10^6 cells/mL. Parasitemia levels were measured using an LSRFortessa flow cytometer equipped with a standard configuration of four lasers and 20 parameters. Single-cell populations were identified on a forward-side scatter plot. […] The inhibition data were then transformed using sigmoidal fitting to determine IC50.
# For stage arrest assays, P. falciparum cultures were tightly synchronized in schizont stages by repeated treatment with 70% Percoll (GE Healthcare, Chicago, IL, USA) [26, 27]. […] Pictures were taken with a Nikon Eclipse 50i microscope equipped with a DS-Fi1 camera (Nikon Corporation, Tokyo, Japan).
# [3] = test system: P. falciparum asexual blood stages; details: cited from earlier work
# [4] = cited from earlier work
# [5] = Bidirectional permeability in Caco-2 cell monolayer; details: human
# [6] = test system: P. falciparum gametocytes; details: cited from earlier work
# [7] = test system: liver stages of P. berghei in Huh7; details: read-out: IC50 against liver stages of P. berghei; cited from earlier work
# CYP2D6 = CYP2D6 (Homo sapiens, UniProt P10635); assay: Cytochrome inhibition assay CYP2D6
# [8] = Human plasma protein binding (Rapid Equilibrium Dialysis); assay type: in vitro ADME; details: pH 7.2, RED, 4 h at 37 °C
# Procedure: The assay was carried out by Rapid Equilibrium Dialysis (RED). The compounds were dissolved at 5 μM in human plasma and added to the corresponding insert of the RED device (Thermo Fisher Scientific, Inc., Waltham, MA, USA), and dialysis was performed for 4 h at 37 °C in […], 25 mM tris-HCl, pH 7.2 (Tris BupH^TM, Thermo Fisher Scientific, Inc.). Then, 50-µL aliquots from each chamber were transferred to empty vials, to which 50 µL of dialysis buffer was added. As control, 50 µL of plasma was mixed with 50 µL of buffer. Three hundred µL of acetonitrile was added to all the samples, which were analyzed by ultra-performance liquid chromatography with tandem mass spectrometry as previously described.
# [9] = test system: MCF7 human breast adenocarcinoma; details: cited from earlier work
# HUVEC = details: cited from earlier work
# [10] = human, hepatocytes
# [11] = test system: P. berghei ookinete development; assay: Ex vivo gametocyte-to-ookinete transition inhibition (ookinete maturation) assay; assay type: cell-based, Plasmodium berghei; details: up to a concentration of 2 µM
# Procedure: Eight days before ookinete production, 100 µL of a red blood cell (RBC) pellet containing the Plasmodium berghei circumsporozoite protein and thrombospondin-related adhesive protein (TRAP)-related protein (CTRP)-green fluorescent protein (GFP) strain (CTRP-GFP, which expresses GFP when reaching ookinete stage, kindly provided by Inga Siden-Kiamos) in cryopreservation solution (RBC pellet:RPMI:30% glycerol in water, 1:1:2) was administered intraperitoneally (i.p.) to a BALB/c mouse (Charles River Laboratories, Wilmington, MA, USA). […] The effect of drugs on gametocyte-to-ookinete conversion was assessed in three independent replicas by plating 120 µL of each culture treated with serial dilutions of the compounds in 96-well plates and incubated for 24 h at 21 °C with orbital shaking at 50 rpm (modified from). Finally, samples diluted 1:100 in PBS were analyzed in an LSRFortessa flow cytometer (BD Biosciences, Franklin Lakes, NJ, USA) set up with the 4 lasers, 20 parameters standard configuration. The GFP positive cell population was counted (λexcitation: 488 nm; λemission: 525/40 nm) using BD FACSDiva software 6.1.3 (BD Biosciences) for data collection and Flowing Software 2.5.1 (Turku Center for Biotechnology, Turku, Finland) for analysis.
# [12] = 3D7, read-out: in vitro IC50 as determined in our experimental setting
# Sequence of CYP2C9 (P11712 whole entry): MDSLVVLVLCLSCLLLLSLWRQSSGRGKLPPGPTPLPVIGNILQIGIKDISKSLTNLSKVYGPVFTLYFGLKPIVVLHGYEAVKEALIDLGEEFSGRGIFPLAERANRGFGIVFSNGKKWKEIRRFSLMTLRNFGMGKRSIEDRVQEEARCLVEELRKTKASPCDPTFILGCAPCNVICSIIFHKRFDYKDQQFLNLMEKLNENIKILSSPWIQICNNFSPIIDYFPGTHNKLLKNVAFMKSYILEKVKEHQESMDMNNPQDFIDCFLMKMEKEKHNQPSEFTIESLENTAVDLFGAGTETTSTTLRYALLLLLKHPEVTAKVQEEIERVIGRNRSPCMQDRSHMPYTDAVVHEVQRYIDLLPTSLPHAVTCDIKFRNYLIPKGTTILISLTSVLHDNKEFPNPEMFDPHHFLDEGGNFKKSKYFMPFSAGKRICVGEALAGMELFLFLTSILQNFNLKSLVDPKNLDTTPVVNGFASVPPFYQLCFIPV
# Sequence of CYP2D6 (P10635 whole entry): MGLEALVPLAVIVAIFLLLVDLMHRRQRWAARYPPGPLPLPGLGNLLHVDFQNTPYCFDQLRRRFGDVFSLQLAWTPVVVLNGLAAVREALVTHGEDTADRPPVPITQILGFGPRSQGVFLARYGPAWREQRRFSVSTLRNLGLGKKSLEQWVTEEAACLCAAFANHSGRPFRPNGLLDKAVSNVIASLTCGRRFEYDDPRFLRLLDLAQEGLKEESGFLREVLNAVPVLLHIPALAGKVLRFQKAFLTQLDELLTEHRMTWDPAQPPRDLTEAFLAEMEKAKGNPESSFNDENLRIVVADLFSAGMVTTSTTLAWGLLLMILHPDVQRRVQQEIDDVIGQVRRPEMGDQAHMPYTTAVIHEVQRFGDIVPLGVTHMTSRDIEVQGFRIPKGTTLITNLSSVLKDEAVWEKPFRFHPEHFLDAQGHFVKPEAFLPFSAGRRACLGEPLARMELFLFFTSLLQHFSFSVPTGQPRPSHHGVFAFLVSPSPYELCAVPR
structure (smiles),measurement,setting,value
Nc1ccc(S(=O)(=O)Nc2ccnn2-c2ccccc2)cc1 [Sulfaphenazole],inhibition at 0.37 µM,CYP2C9,43%
Cc1nc2c([nH]1)c(=O)n(C)c(=O)n2Cc1ccco1 [Furafylline],inhibition at 2 µM,CYP1A2,61%
CCN(CC)CCCC(C)Nc1ccnc2cc(Cl)ccc12 (stereo not shown) [chloroquine],effect on protein aggregation (ThT fluorescence),[1],reduce protein aggregation
same,IC50,[2]; read-out: in vitro IC50 as determined in our experimental setting,0.007 µM
same,IC50,"[3]; Table S2, ref 10 (supplement list), read-out: IC50 P. falciparum (3D7) blood stages, reference compound",0.0297 ± 0.006 µM
COc1cc2c(c(OC)c1OC)-c1ccc(OC)c(=O)cc1[C@@H](NC(C)=O)CC2 [Colchicine],Papp AB reported,[4]; ref 24 (supplement list),1.3 ×10⁻⁶ cm/s
same,Papp BA reported,[4]; ref 24 (supplement list),5.4 ×10⁻⁶ cm/s
same,Papp,[5]; Caco-2,0.26 ± 0.02 ×10⁻⁶ cm/s
same,Papp B→A,[5]; Caco-2,8.98 ± 0.47 ×10⁻⁶ cm/s
same,efflux ratio,"[5]; Caco-2, Transport through Caco-2 Efflux ratio, reference compounds, tested in parallel",35.3 ± 3
same,efflux ratio,"[5]; Caco-2, efflux ratios of reference compounds, as quoted in text from Supplementary Table S2",33
O=C1C(O)=C([C@H]2CC[C@H](c3ccc(Cl)cc3)CC2)C(=O)c2ccccc21 [atovaquone],effect on protein aggregation (ThT fluorescence),[1],did not have an observable effect
same,IC50,[2]; [12],0.001 µM
COc1cc(NC(C)CCCN)c2ncccc2c1 (stereo not shown) [primaquine],IC50,"[6]; Table S2, ref 10 (supplement list), read-out: IC50 P. falciparum early/stage V gametocytes, reference compound",18.9 ± 2 µM
same,IC50,"[6]; stage IV-V gametocytes, read-out: IC50 for P. falciparum gametocytes (primaquine)",~20 µM
same,effect on protein aggregation (ThT fluorescence),[1],reduce protein aggregation
same,IC50,[7],~10 µM
same,IC50,[2]; [12],3 µM
C=C[C@H]1C[N@@]2CC[C@H]1C[C@@H]2[C@@H](O)c1ccnc2ccc(OC)cc12 [Quinidine],inhibition at 0.0073 µM,CYP2D6,69%
C[C@@H]1CC[C@H]2[C@@H](C)C(=O)O[C@@H]3O[C@@]4(C)CC[C@@H]1[C@]32OO4 [artemisinin],effect on protein aggregation (ThT fluorescence),[1],did not have an observable effect
same,IC50,[2]; [12],0.0108 µM
C[C@]12CC[C@@H]3c4ccc(OS(=O)(=O)O)cc4CC[C@H]3[C@@H]1CCC2=O [Estrone-3-sulfate],Papp AB reported,[4]; not told,2.7 ×10⁻⁶ cm/s
same,Papp BA reported,[4]; not told,17.5 ×10⁻⁶ cm/s
same,"Transport through Caco-2 AB (Papp), reference compounds",,0.44 ± 0.03 ×10⁻⁶ cm/s
same,"Transport through Caco-2 Efflux ratio, reference compounds",,26.5±3.5
same,"Transport through Caco-2 BA (Papp), reference compounds",human,11 ± 0.94 ×10⁻⁶ cm/s
O=C1NC(=O)C(c2ccccc2)(c2ccccc2)N1 [Phenytoin],"fraction unbound at 4 h, 5 μM",[8],0.167
C[C@]12CC[C@H]3[C@@H](CCC4=CC(=O)CC[C@@]43C)[C@@H]1CC[C@@H]2O [Testosterone],half-life,"Microsomal stability; human, microsomes",15.3 min
same,microsomal CLint,"Microsomal stability; human, microsomes",55.6 µL/min/mg
same,"Microsomal stability (remaining after 1 h), reference compound",Microsomal stability; tested in parallel,6.5%
CC(=O)[C@H]1CC[C@H]2[C@@H]3CCC4=CC(=O)CC[C@]4(C)[C@H]3CC[C@]12C [Progesterone],solubility,Solubility in PBS,8 µM
N.N.[Cl][Pt][Cl] [Cisplatin],CC50,[9],16.7 µM
same,CC50,HUVEC,2.35 ± 0.04 µM
COc1cc2nc(N3CCN(C(=O)c4ccco4)CC3)nc(N)c2cc1OC [Prazosin],solubility,physchem,63.8 µM
same,"Hepatocyte stability (remaining after 2 h), reference compounds",[10],70.2%
COc1cc2c(cc1OC)C(=O)C(CC1CCN(CCCNc3c4c(nc5cc(Cl)ccc35)CCCC4)CC1)C2 (stereo not shown) [DONE3TCl],effect on ookinete development,[11],much less significant effect
same,IC50,[3]; read-out: IC50 in in vitro P. falciparum asexual blood stage cultures,~0.08 µM
